What was measured:
RS4;11 cells = experiment: RS4;11 cell proliferation assay (CellTiter-Glo); type: cell-based; details: Homo sapiens, 48 h compound treatment, read-out: RS4;11 (nM) CTG IC50
Method: (§1) Cell proliferation was measured using the CellTiter-Glo@ Luminescent Cell Viability Assay. The assay involved the addition of a single reagent (CellTiter-Glo® Reagent) directly to cells cultured in serum-supplemented medium. RS4;11 (ATC, CRL-1873) cells were cultured according to ATCC recommendations and were seeded at 50,000 cells per well. NCI-H1963 cells (ATCC CRL-5982) were cultured according to ATCC recommendations and seeded at 12,000 cells per well.
(§2) Each compound evaluated was prepared as a DMSO stock solution (10 mM). Compounds were tested in duplicate on each plate, with a 10-point serial dilution curve (1:3 dilution). Compound treatment (1.0 μL) was added from the compound dilution plate to the cell plate. The highest compound concentration was 10 μM (final), with a 0.1% final DMSO concentration. Plates were then incubated at 37° C., 5% CO2. After 48 h of compound treatment for RS4;11 or 72 h for NCI-H1963, cell plates were equilibrated at rt for approximately 30 mins. An equi-volume amount of CellTiter-Glo@ Reagent (40 μL) was added to each well. Plates were mixed for 2 mins on an orbital shaker to induce cell lysis and then incubated at RT for 10 mins to stabilize the luminescent signal. Luminescence was recorded using a Envision plate reader according to CellTiter-Glo protocol. IC50 of each compound was calculated using GraphPad Prism by nonlinear regression analysis.

NCI-H1963 cells = experiment: NCI-H1963 cell proliferation assay (CellTiter-Glo); type: cell-based; details: Homo sapiens, 72 h compound treatment, read-out: H1963 (nM) CTG IC50
Method: as §1, §2

CC1(C)CCC(CN2CCN(c3ccc(C(=O)NS(=O)(=O)c4ccc(NCC5CCOCC5)c([N+](=O)[O-])c4)c(Oc4cnc5[nH]ccc5c4)c3)CC2)=C(c2ccc(Cl)cc2)C1 [ABT-199, reference compound]
IC50 (RS4;11 cells): < 100 nM
IC50 (NCI-H1963 cells): > 1000 nM

CC1(C)CCC(c2ccc(Cl)cc2)=C(CN2CCN(c3ccc(C(=O)NS(=O)(=O)c4ccc(N[C@H](CCN5CCOCC5)CSc5ccccc5)c(S(=O)(=O)C(F)(F)F)c4)cc3)CC2)C1 [ABT-263, reference compound]
IC50 (RS4;11 cells): < 100 nM
IC50 (NCI-H1963 cells): ≤ 500 nM

CC1(C)CCC(C23CC(Cl)(C2)C3)=C(CN2CCN(c3ccc(C(=O)NS(=O)(=O)c4ccc(N[C@H](CCN5CCOCC5)CSc5ccccc5)c(S(=O)(=O)C(F)(F)F)c4)cc3)CC2)C1 [Example 45, (R)-4-(4-((2-(3-Chlorobicyclo[1.1.1]pentan-1-yl)-5,5-dimethylcyclohex-1-en-1-yl)methyl)piperazin-1-yl)-N-((4-((4-morpholino-1-(phenylthio)butan-2-yl)amino)-3-((trifluoromethyl)sulfonyl)phenyl)sulfonyl)benzamide]
IC50 (RS4;11 cells): > 1000 nM

CN(CCO)CC[C@H](CSc1ccccc1)Nc1ccc(S(=O)(=O)NC(=O)c2ccc(N3CCN(CC4=C(C56CC(C(F)(F)F)(C5)C6)CC(C)(C)CC4)CC3)cc2)cc1S(=O)(=O)C(F)(F)F [Example 51, (R)-4-(4-((4,4-dimethyl-2-(3-(trifluoromethyl)bicyclo[1.1.1]pentan-1-yl)cyclohex-1-en-1-yl)methyl)piperazin-1-yl)-N-((4-((4-((2-hydroxyethyl)(methyl)amino)-1-(phenylthio)butan-2-yl)amino)-3-((trifluoromethyl)sulfonyl)phenyl)sulfonyl)benzamide]
IC50 (RS4;11 cells): 100 to 1000 nM

CC1(C)CCC(CN2CCN(c3ccc(C(=O)NS(=O)(=O)c4ccc(N[C@H](CCN5CCOCC5)CSc5ccccc5)c(S(=O)(=O)C(F)(F)F)c4)cc3)CC2)=C(C23CC(C)(C2)C3)C1 [Example 52, (R)-4-(4-((4,4-Dimethyl-2-(3-methylbicyclo[1.1.1]pentan-1-yl)cyclohex-1-en-1-yl)methyl)piperazin-1-yl)-N-((4-((4-morpholino-1-(phenylthio)butan-2-yl)amino)-3-((trifluoromethyl)sulfonyl)phenyl)sulfonyl)benzamide]
IC50 (RS4;11 cells): 100 to 1000 nM

CCC12CC(C3=C(CN4CCN(c5ccc(C(=O)NS(=O)(=O)c6ccc(N[C@H](CCN7CCOCC7)CSc7ccccc7)c(S(=O)(=O)C(F)(F)F)c6)cc5)CC4)CCC(C)(C)C3)(C1)C2 [Example 53, (R)-4-(4-((2-(3-Ethylbicyclo[1.1.1]pentan-1-yl)-4,4-dimethylcyclohex-1-en-1-yl)methyl)piperazin-1-yl)-N-((4-((4-morpholino-1-(phenylthio)butan-2-yl)amino)-3-((trifluoromethyl)sulfonyl)phenyl)sulfonyl)benzamide]
IC50 (RS4;11 cells): > 1000 nM

CC1(C)CCC(CN2CCN(c3ccc(C(=O)NS(=O)(=O)c4ccc(N[C@H](CCN5CCOCC5)CSc5ccccc5)c(S(=O)(=O)C(F)(F)F)c4)cc3)CC2)=C(C23CC(C(F)(F)F)(C2)C3)C1 [Example 54, (R)-4-(4-((4,4-dimethyl-2-(3-(trifluoromethyl)bicyclo[1.1.1]pentan-1-yl)cyclohex-1-en-1-yl)methyl)piperazin-1-yl)-N-((4-((4-morpholino-1-(phenylthio)butan-2-yl)amino)-3-((trifluoromethyl)sulfonyl)phenyl)sulfonyl)benzamide]
IC50 (RS4;11 cells): > 1000 nM

CC1(C)CCC(CN2CCN(c3ccc(C(=O)NS(=O)(=O)c4ccc(N[C@H](CCN5CCOCC5)CSc5ccccc5)c([N+](=O)[O-])c4)cc3)CC2)=C(C23CC(C)(C2)C3)C1 [Example 56, (R)-4-(4-((4,4-dimethyl-2-(3-methylbicyclo[1.1.1]pentan-1-yl)cyclohex-1-en-1-yl)methyl)piperazin-1-yl)-N-((4-((4-morpholino-1-(phenylthio)butan-2-yl)amino)-3-nitrophenyl)sulfonyl)benzamide]
IC50 (RS4;11 cells): > 1000 nM
IC50 (NCI-H1963 cells): 500 to 1000 nM

CCC12CC(C3=C(CN4CCN(c5ccc(C(=O)NS(=O)(=O)c6ccc(N[C@H](CCN7CCOCC7)CSc7ccccc7)c([N+](=O)[O-])c6)cc5)CC4)CCC(C)(C)C3)(C1)C2 [Example 57, (R)-4-(4-((2-(3-ethylbicyclo[1.1.1]pentan-1-yl)-4,4-dimethylcyclohex-1-en-1-yl)methyl)piperazin-1-yl)-N-((4-((4-morpholino-1-(phenylthio)butan-2-yl)amino)-3-nitrophenyl)sulfonyl)benzamide]
IC50 (RS4;11 cells): > 1000 nM
IC50 (NCI-H1963 cells): > 1000 nM

CC1(C)CCC(C23CC(C(F)F)(C2)C3)=C(CN2CCN(c3ccc(C(=O)NS(=O)(=O)c4ccc(N[C@H](CCN5CCC(O)CC5)CSc5ccccc5)c(S(=O)(=O)C(F)(F)F)c4)cc3)CC2)C1 [Example 65, (R)-4-(4-((2-(3-(difluoromethyl)bicyclo[1.1.1]pentan-1-yl)-5,5-dimethylcyclohex-1-en-1-yl)methyl)piperazin-1-yl)-N-((4-((4-(4-hydroxypiperidin-1-yl)-1-(phenylthio)butan-2-yl)amino)-3-((trifluoromethyl)sulfonyl)phenyl)sulfonyl)benzamide]
IC50 (NCI-H1963 cells): 500 to 1000 nM

CC1(C)CCC(CN2CCN(c3ccc(C(=O)NS(=O)(=O)c4ccc(N[C@H](CCN5CCC(O)CC5)CSc5ccccc5)c(S(=O)(=O)C(F)(F)F)c4)cc3)CC2)=C(C23CC(C)(C2)C3)C1 [Example 68, (R)-4-(4-((4,4-dimethyl-2-(3-methylbicyclo[1.1.1]pentan-1-yl)cyclohex-1-en-1-yl)methyl)piperazin-1-yl)-N-((4-((4-(4-hydroxypiperidin-1-yl)-1-(phenylthio)butan-2-yl)amino)-3-((trifluoromethyl)sulfonyl)phenyl)sulfonyl)benzamide]
IC50 (RS4;11 cells): 100 to 1000 nM
IC50 (NCI-H1963 cells): ≤ 500 nM

CC1(C)CCC(CN2CCN(c3ccc(C(=O)NS(=O)(=O)c4ccc(N[C@H](CCN5CCC(O)C5)CSc5ccccc5)c(S(=O)(=O)C(F)(F)F)c4)cc3)CC2)=C(C23CC(C(F)F)(C2)C3)C1 (stereo partly drawn) [Example 71]
IC50 (NCI-H1963 cells): 500 to 1000 nM

O=C(NS(=O)(=O)c1ccc(NCC2CCOCC2)c([N+](=O)[O-])c1)c1ccc(N2CCN(CC3=C(C45CC(Cl)(C4)C5)CCCC3)CC2)cc1Oc1cnc2[nH]ccc2c1 [Example 72, 2-((1H-pyrrolo[2,3-b]pyridin-5-yl)oxy)-4-(4-((2-(3-chlorobicyclo[1.1.1]pentan-1-yl)cyclohex-1-en-1-yl)methyl)piperazin-1-yl)-N-((3-nitro-4-(((tetrahydro-2H-pyran-4-yl)methyl)amino)phenyl)sulfonyl)benzamide]
IC50 (RS4;11 cells): > 1000 nM

Source: US11344546B2, “Benzamide compounds” (Recurium IP Holdings, LLC, priority 2018, dated 2022)
